Measurements taken from patent US7612087B2, “Heterocyclic compounds as inhibitors of beta-lactamases” (Novexel, priority 2002, dated 2009).

Key:
E. coli 250CF1 (Tem3) = assay: microbe, parasite or virus in culture; type: cell-based; details: compound at 5 mg/l, 24 hours at 37° C.; for MIC of Cefotaxime in combination with the compound: Trial 4, 250CF1 E. coli Tem3; for MIC of Piperacillin in combination with the compound: Trial 4, 250CF1 Tem3
Procedure: (§1) The operation is carried out as follows, using the so-called micro-dilution in liquid medium method.
(§2) A series of concentrations of the β-lactamine is prepared in the presence of a constant concentration (5 mg/l) of the product to be studied, each is then seeded with various bacterial strains.
(§3) After incubation for 24 hours in a heating chamber at 37° C., the growth inhibition is evaluated by the absence of any bacterial development, which allows the minimal inhibitory concentrations (MIC) for each strain to be determined, expressed in milligrams/l.

β-lactamase TEM1 = target: T1, β-lactamase TEM1 (Escherichia coli, UniProt P62593); assay: Inhibition of isolated β-lactamase Tem-1 (Nitrocefin hydrolysis); type: biochemical, E.coli 250HT21; details: 100 μM Nitrocefin, 50 mM sodium phosphate buffer pH7.0, 37° C.
T1 construct: The β-lactamases are isolated from bacterial strains which are resistant to penicillins and cephalosporins; endogenous in cells; host or cells: E. coli 250HT21 (natural producer; French-press lysate, 100,000 g supernatant)
T1 sequence (P62593 24-286 limits assumed): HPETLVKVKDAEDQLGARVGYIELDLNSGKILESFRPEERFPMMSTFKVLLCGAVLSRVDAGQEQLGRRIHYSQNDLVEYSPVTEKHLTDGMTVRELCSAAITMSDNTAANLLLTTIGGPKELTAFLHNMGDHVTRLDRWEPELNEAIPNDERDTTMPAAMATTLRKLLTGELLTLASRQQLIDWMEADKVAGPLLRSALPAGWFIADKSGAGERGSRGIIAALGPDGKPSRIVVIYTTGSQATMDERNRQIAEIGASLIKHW
Procedure, shortened: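 TEM-1 from soluble extract of E. coli 250HT21, normalized enzyme, 100 μM Nitrocefin in 50 mM sodium phosphate pH 7.0 at 37 °C. Initial-rate hydrolysis read kinetically at 485 nm, with and without 5 min enzyme–inhibitor preincubation. CI50 from 6 or 8 concentrations in duplicate.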

E. coli 250SJ1 (Tem7) = assay: MIC, micro-dilution in liquid medium, β-lactamine with product at 5 mg/l; type: cell-based; details: compound at 5 mg/l, 24 hours at 37° C.; for MIC of Cefotaxime in combination with the compound: Trial 5, 250SJ1 E. coli Tem7; for MIC of Piperacillin in combination with the compound: Trial 5, 250SJ1 Tem7
Procedure: as §1, §2, §3

E. coli 250HT26 (SHV1) = assay: as above; type: cell-based; details: compound at 5 mg/l, 24 hours at 37° C.; for MIC of Cefotaxime in combination with the compound: Trial 6, 250HT26 E. coli SHV1; for MIC of Piperacillin in combination with the compound: Trial 6, 250HT26 SHV1
Procedure: as §1, §2, §3

E. coli 250HT22 (Tem2) = assay: as above; type: cell-based; details: compound at 5 mg/l, 24 hours at 37° C.; for MIC of Cefotaxime in combination with the compound: Trial 3, 250HT22 E. coli Tem2; for MIC of Piperacillin in combination with the compound: Trial 3, 250HT22 Tem2
Procedure: as §1, §2, §3

E. coli 250BE1 (SHV4) = assay: as above; type: cell-based; details: compound at 5 mg/l, 24 hours at 37° C.; for MIC of Cefotaxime in combination with the compound: Trial 7, 250BE1 E. coli SHV4; for MIC of Piperacillin in combination with the compound: Trial 7, 250BE1 SHV4
Procedure: as §1, §2, §3

[1] = system: S. aureus 011GO66 (PeniR); assay: as above; type: cell-based; details: compound at 5 mg/l, 24 hours at 37° C.; for MIC of Cefotaxime in combination with the compound: Trial 1, 011GO66 S. aureus PeniR; for MIC of Piperacillin in combination with the compound: Trial 1, 011GO66 peniR
Procedure: as §1, §2, §3

[2] = system: E. cloacae 293HT6 (Class C); assay: as above; type: cell-based; details: compound at 5 mg/l, 24 hours at 37° C.; for MIC of Piperacillin in combination with the compound: Trial 9, 293HT6 Class; for MIC of Cefotaxime in combination with the compound: Trial 9, 293HT6 E. cloacae Class C
Procedure: as §1, §2, §3

Serratia 301HT6 = assay: as above; type: cell-based; details: compound at 5 mg/l; Trial 10, 301HT6 Serratia; 24 hours at 37° C.
Procedure: as §1, §2, §3

[3] = system: E. coli 250HT23 (Class D); assay: as above; type: cell-based; details: compound at 5 mg/l, 24 hours at 37° C.; for MIC of Piperacillin in combination with the compound: Trial 8, 250HT23 Class D; for MIC of Cefotaxime in combination with the compound: Trial 8, 250HT23 E. coli Class D
Procedure: as §1, §2, §3

E. coli 250HT21 (Tem1) = assay: as above; type: cell-based; details: compound at 5 mg/l, 24 hours at 37° C.; for MIC of Cefotaxime in combination with the compound: Trial 2, 250HT21 E. coli Tem1; for MIC of Piperacillin in combination with the compound: Trial 2, 250HT21 Tem1
Procedure: as §1, §2, §3

[4] = system: P. aeruginosa 391HT8 (PSE); assay: as above; type: cell-based; details: compound at 5 mg/l, 24 hours at 37° C.; for MIC of Cefotaxime in combination with the compound: Trial 12, 391HT8 P. aeruginosa PSE; for MIC of Piperacillin in combination with the compound: Trial 12, 391HT8 PSE
Procedure: as §1, §2, §3

[5] = system: P. aeruginosa 391HT7 (PSE); assay: as above; type: cell-based; details: compound at 5 mg/l, 24 hours at 37° C.; for MIC of Cefotaxime in combination with the compound: Trial 11, 391HT7 P. aeruginosa PSE; for MIC of Piperacillin in combination with the compound: Trial 11, 391HT7 PSE
Procedure: as §1, §2, §3

β-lactamase P99 = target: T2, β-lactamase P99 (Enterobacter cloacae, UniProt P05364); assay: biochemical; details: 100 μM Nitrocefin, 50 mM sodium phosphate buffer pH7.0, 37° C.; read-out: IC50 nM/P99
T2 construct: The β-lactamases are isolated from bacterial strains which are resistant to penicillins and cephalosporins; endogenous in cells; host or cells: Enterobacter cloacae 293HT6 (natural producer; French-press lysate, 100,000 g supernatant)
T2 sequence (P05364 21-381): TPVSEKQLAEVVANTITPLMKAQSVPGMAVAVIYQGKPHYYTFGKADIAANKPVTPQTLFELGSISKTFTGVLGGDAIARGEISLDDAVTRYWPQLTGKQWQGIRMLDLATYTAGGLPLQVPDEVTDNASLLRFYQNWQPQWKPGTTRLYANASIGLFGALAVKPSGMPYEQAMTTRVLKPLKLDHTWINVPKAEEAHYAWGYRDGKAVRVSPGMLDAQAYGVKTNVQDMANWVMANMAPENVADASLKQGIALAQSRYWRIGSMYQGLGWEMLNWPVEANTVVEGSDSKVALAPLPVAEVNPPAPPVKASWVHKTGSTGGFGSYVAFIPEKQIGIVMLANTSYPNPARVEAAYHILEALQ
Procedure, shortened: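 P99 β-lactamase, taken from the soluble fraction of an Enterobacter cloacae 293HT6 lysate, was assayed at 37° C. in 50 mM sodium phosphate buffer pH7.0 with 100 μM Nitrocefin as the chromogenic substrate. Hydrolysis was followed kinetically at 485 nm at initial speed, with and without a 5 mn enzyme–inhibitor preincubation. Inhibitors were tested at 6 or 8 concentrations in duplicate, and IC50 was fitted with GraFit.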

O=C(NCCc1cccnc1)[C@H]1CC[C@@H]2CN1C(=O)N2OS(=O)(=O)[O-].[Na+] (relative stereo) [Example 36, sodium salt of trans-7-oxo-N-[2-(3-pyridinyl)ethyl]-6-(sulphooxy)-1,6-diazabicyclo[3.2.1]octane-2-carboxamide]
MIC of Cefotaxime in combination with the compound (E. coli 250CF1 (Tem3)): 0.3 mg/L
MIC of Piperacillin in combination with the compound (E. coli 250CF1 (Tem3)): 40 mg/L
IC50 (β-lactamase TEM1): 23 nM
MIC of Cefotaxime in combination with the compound (E. coli 250SJ1 (Tem7)): <=0.04 μg/ml
MIC of Piperacillin in combination with the compound (E. coli 250SJ1 (Tem7)): 20 mg/L
MIC of Cefotaxime in combination with the compound (E. coli 250HT26 (SHV1)): <=0.04 μg/ml
MIC of Piperacillin in combination with the compound (E. coli 250HT26 (SHV1)): 20 mg/L
MIC of Cefotaxime in combination with the compound (E. coli 250HT22 (Tem2)): <=0.04 μg/ml
MIC of Piperacillin in combination with the compound (E. coli 250HT22 (Tem2)): 40 mg/L
MIC of Cefotaxime in combination with the compound (E. coli 250BE1 (SHV4)): 0.3 mg/L
MIC of Piperacillin in combination with the compound (E. coli 250BE1 (SHV4)): >40 mg/L
MIC of Cefotaxime in combination with the compound [1]: 1.2 mg/L
MIC of Piperacillin in combination with the compound [1]: 1.2 mg/L
MIC of Piperacillin in combination with the compound [2]: 20 mg/L
MIC of Cefotaxime in combination with the compound [2]: 20 mg/L
MIC of Cefotaxime in combination with the compound (Serratia 301HT6): 0.08 mg/L
MIC of Piperacillin in combination with the compound (Serratia 301HT6): 1.2 mg/L
MIC of Piperacillin in combination with the compound [3]: 20 mg/L
MIC of Cefotaxime in combination with the compound [3]: <=0.04 μg/ml
MIC of Cefotaxime in combination with the compound (E. coli 250HT21 (Tem1)): <=0.04 μg/ml
MIC of Piperacillin in combination with the compound (E. coli 250HT21 (Tem1)): 5 mg/L
MIC of Cefotaxime in combination with the compound [4]: 40 mg/L
MIC of Piperacillin in combination with the compound [4]: >40 mg/L
MIC of Cefotaxime in combination with the compound [5]: 40 mg/L
MIC of Piperacillin in combination with the compound [5]: >40 mg/L
IC50 (β-lactamase P99): 110 nM

O=C(NCCc1ccncc1)[C@H]1CC[C@@H]2CN1C(=O)N2OS(=O)(=O)[O-].[Na+] (relative stereo) [Example 37, sodium salt of trans-7-oxo-N-[2-(4-pyridinyl)ethyl]-6-(sulphooxy)-1,6-diazabicyclo[3.2.1]octane-2-carboxamide]
MIC of Cefotaxime in combination with the compound (E. coli 250CF1 (Tem3)): 0.3 mg/L
MIC of Piperacillin in combination with the compound (E. coli 250CF1 (Tem3)): 40 mg/L
IC50 (β-lactamase TEM1): 29 nM
MIC of Cefotaxime in combination with the compound (E. coli 250SJ1 (Tem7)): 0.08 mg/L
MIC of Piperacillin in combination with the compound (E. coli 250SJ1 (Tem7)): >40 mg/L
MIC of Cefotaxime in combination with the compound (E. coli 250HT26 (SHV1)): <=0.04 μg/ml
MIC of Piperacillin in combination with the compound (E. coli 250HT26 (SHV1)): 20 mg/L
MIC of Cefotaxime in combination with the compound (E. coli 250HT22 (Tem2)): <=0.04 μg/ml
MIC of Piperacillin in combination with the compound (E. coli 250HT22 (Tem2)): >40 mg/L
MIC of Cefotaxime in combination with the compound (E. coli 250BE1 (SHV4)): 0.6 mg/L
MIC of Piperacillin in combination with the compound (E. coli 250BE1 (SHV4)): >40 mg/L
MIC of Cefotaxime in combination with the compound [1]: 1.2 mg/L
MIC of Piperacillin in combination with the compound [1]: 0.6 mg/L
MIC of Piperacillin in combination with the compound [2]: 40 mg/L
MIC of Cefotaxime in combination with the compound [2]: >40 mg/L
MIC of Cefotaxime in combination with the compound (Serratia 301HT6): 0.08 mg/L
MIC of Piperacillin in combination with the compound (Serratia 301HT6): 2.5 mg/L
MIC of Piperacillin in combination with the compound [3]: 40 mg/L
MIC of Cefotaxime in combination with the compound [3]: <=0.04 μg/ml
MIC of Cefotaxime in combination with the compound (E. coli 250HT21 (Tem1)): <=0.04 μg/ml
MIC of Piperacillin in combination with the compound (E. coli 250HT21 (Tem1)): 2.5 mg/L
MIC of Cefotaxime in combination with the compound [4]: 20 mg/L
MIC of Piperacillin in combination with the compound [4]: >40 mg/L
MIC of Cefotaxime in combination with the compound [5]: 20 mg/L
MIC of Piperacillin in combination with the compound [5]: >40 mg/L
IC50 (β-lactamase P99): 160 nM

O=C(NCCc1ccccn1)[C@H]1CC[C@@H]2CN1C(=O)N2OS(=O)(=O)[O-].[Na+] (relative stereo) [Example 38, sodium salt of trans-7-oxo-N-[2-(2-pyridinyl)ethyl]-6-(sulphooxy)-1,6-diazabicyclo[3.2.1]octane-2-carboxamide]
MIC of Cefotaxime in combination with the compound (E. coli 250CF1 (Tem3)): 0.3 mg/L
MIC of Piperacillin in combination with the compound (E. coli 250CF1 (Tem3)): 20 mg/L
IC50 (β-lactamase TEM1): 35 nM
MIC of Cefotaxime in combination with the compound (E. coli 250SJ1 (Tem7)): <=0.04 μg/ml
MIC of Piperacillin in combination with the compound (E. coli 250SJ1 (Tem7)): >40 mg/L
MIC of Cefotaxime in combination with the compound (E. coli 250HT26 (SHV1)): <=0.04 μg/ml
MIC of Piperacillin in combination with the compound (E. coli 250HT26 (SHV1)): 40 mg/L
MIC of Cefotaxime in combination with the compound (E. coli 250HT22 (Tem2)): <=0.04 μg/ml
MIC of Piperacillin in combination with the compound (E. coli 250HT22 (Tem2)): >40 mg/L
MIC of Cefotaxime in combination with the compound (E. coli 250BE1 (SHV4)): 0.3 mg/L
MIC of Piperacillin in combination with the compound (E. coli 250BE1 (SHV4)): >40 mg/L
MIC of Cefotaxime in combination with the compound [1]: 1.2 mg/L
MIC of Piperacillin in combination with the compound [1]: 0.6 mg/L
MIC of Piperacillin in combination with the compound [2]: 40 mg/L
MIC of Cefotaxime in combination with the compound [2]: 20 mg/L
MIC of Cefotaxime in combination with the compound (Serratia 301HT6): 0.08 mg/L
MIC of Piperacillin in combination with the compound (Serratia 301HT6): 1.2 mg/L
MIC of Piperacillin in combination with the compound [3]: >40 mg/L
MIC of Cefotaxime in combination with the compound [3]: <=0.04 μg/ml
MIC of Cefotaxime in combination with the compound (E. coli 250HT21 (Tem1)): <=0.04 μg/ml
MIC of Piperacillin in combination with the compound (E. coli 250HT21 (Tem1)): 5 mg/L
MIC of Cefotaxime in combination with the compound [4]: 40 mg/L
MIC of Piperacillin in combination with the compound [4]: >40 mg/L
MIC of Cefotaxime in combination with the compound [5]: 40 mg/L
MIC of Piperacillin in combination with the compound [5]: >40 mg/L
IC50 (β-lactamase P99): 77 nM
